US20240409574A1, “SMALL MOLECULES FOR DOT1L DEGRADATION AND USES THEREOF” (DANA-FARBER CANCER INSTITUTE, INC., priority 2021, published 2024)

Columns and labels:
DOT1L [1] = biological target: T1, DOT1L (Homo sapiens, UniProt Q8TEK3); assay: Western blot of DOT1L degradation in EOL1 cells; type: cell-based; set-up: degraded DOT1L in EOL1 cells; endogenous in cells; host or cells: EOL1; details: FIG. 4A, 6A, 9A
Target sequence in this assay (Q8TEK3 whole entry): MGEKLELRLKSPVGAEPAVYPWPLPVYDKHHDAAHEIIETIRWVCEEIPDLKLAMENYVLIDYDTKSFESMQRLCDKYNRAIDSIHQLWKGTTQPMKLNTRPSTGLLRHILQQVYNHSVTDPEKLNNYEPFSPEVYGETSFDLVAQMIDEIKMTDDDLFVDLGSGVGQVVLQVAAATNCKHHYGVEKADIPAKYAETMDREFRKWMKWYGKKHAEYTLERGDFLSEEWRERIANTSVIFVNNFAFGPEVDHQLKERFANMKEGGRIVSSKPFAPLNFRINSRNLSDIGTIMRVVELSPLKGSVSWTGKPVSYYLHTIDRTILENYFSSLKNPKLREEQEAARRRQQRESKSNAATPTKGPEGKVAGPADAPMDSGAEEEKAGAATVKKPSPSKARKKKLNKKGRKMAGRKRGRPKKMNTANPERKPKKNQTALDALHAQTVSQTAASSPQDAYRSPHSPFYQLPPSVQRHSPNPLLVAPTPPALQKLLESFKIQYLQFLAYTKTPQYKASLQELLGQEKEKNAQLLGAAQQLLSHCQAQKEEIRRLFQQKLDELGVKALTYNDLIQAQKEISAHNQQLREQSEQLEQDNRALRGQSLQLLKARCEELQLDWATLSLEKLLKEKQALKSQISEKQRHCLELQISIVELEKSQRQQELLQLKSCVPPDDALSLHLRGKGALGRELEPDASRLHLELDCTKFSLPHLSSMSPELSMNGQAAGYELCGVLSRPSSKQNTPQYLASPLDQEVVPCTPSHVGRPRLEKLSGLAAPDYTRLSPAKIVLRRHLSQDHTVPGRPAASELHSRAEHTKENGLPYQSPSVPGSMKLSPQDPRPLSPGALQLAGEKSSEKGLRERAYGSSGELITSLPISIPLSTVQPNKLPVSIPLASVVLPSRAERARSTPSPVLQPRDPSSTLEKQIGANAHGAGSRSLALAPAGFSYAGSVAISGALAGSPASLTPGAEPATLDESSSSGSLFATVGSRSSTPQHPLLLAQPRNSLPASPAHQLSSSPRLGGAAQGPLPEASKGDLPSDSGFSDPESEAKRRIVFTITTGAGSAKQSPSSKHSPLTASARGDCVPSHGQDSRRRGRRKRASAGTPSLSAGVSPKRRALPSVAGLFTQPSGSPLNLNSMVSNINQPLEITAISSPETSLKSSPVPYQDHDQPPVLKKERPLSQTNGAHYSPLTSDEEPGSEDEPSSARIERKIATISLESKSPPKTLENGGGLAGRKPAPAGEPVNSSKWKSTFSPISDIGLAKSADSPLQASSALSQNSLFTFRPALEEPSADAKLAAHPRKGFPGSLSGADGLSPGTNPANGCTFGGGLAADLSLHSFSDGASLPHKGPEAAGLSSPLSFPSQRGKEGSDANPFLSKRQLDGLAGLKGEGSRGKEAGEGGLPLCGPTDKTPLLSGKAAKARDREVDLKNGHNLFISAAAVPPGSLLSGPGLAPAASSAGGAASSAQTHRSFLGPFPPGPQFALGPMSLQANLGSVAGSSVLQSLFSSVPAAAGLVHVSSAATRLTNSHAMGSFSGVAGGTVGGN
DOT1L:CRBN = DOT1L:CRBN (Homo sapiens, UniProt Q8TEK3+Q96SW2); assay: DOT1L:CRBN-DDB1 dimerization assay (AlphaScreen); type: binding; details: FIG. 2, GST-CRBN-DDB1 and 6xHIS DOT1L 125 nM
Protocol: Example 14: DOT1L:Cereblon (CRBN)-DNA Damage-Binding Protein 1 (DDB1)/DOT1L Dimerization Assay
GST-CRBN-DDB1 and DOT1L (6×HIS-tagged) were both diluted to 125 nM in assay buffer (50 mM 2-[4-(2-Hydroxyethyl)piperazin-1-yl]ethane-1-sulfonic acid (HEPES) pH 7.4, 150 mM NaCl, and 0.01% Tween®, 2, 0.1% bovine serum albumin (BSA)), and 20 μL of protein mixture was added to each well of a 384-well AlphaPlate™ (PerkinElmer®). Compounds were then added at 100 nL per well from DMSO stock plates using a Janus®, Workstation (PerkinElmer®). Following a 1-hour incubation at room temperature, 20 μL Nickel Chelate AlphaLISA® Acceptor and Glutathione AlphaLISA® Donor beads (PerkinElmer®) diluted to 20 ng/μl in assay buffer was added to each well. After a 1-hour incubation at room temperature, luminescence was measured on the Envision® 2104 plate reader (PerkinElmer®). Data were analyzed and plotted using GraphPad PRISM v6 and dimerization amplitude, mean, and s.d. values were determined using the ‘Gaussian’ analysis module.
DOT1L:CRBN dimerization by inventive bifunctional compounds 2, 3, and 6, and pomalidomide and EPZ5676 was assessed by AlphaScreen® assay.

DOT1L [2] = biological target: T1, DOT1L; assay: DOT1L fluorescence polarization (FP) displacement assay; type: binding; details: FIG. 1
Protocol: Example 13: Cellular Disruptor of Telomeric Silencing 1-Like (DOT1L) Fluorescence Polarization (FP) Displacement Assay
DOT1L FP displacement assays were conducted with inventive bifunctional compounds 2, 3, and 6, and pomalidomide and positive control EPZ5676 at different concentrations [M], measured in [M] per mP.
Target sequence in this assay (Q8TEK3 whole entry, species assumed): as the sequence (Q8TEK3 whole entry) above

EOL1 cells = assay: Cell proliferation assay in EOL1 cells (trypan blue cell counts); type: cell-based, human; details: FIG. 3, 4B, 6B, 7, 8, 9B
Protocol: Example 15: Cell Proliferation Assays in EOL1 (Human Eosinophilic Leukaemia) Cells with Inventive Bifunctional Compounds
(§1) EOL1 cells were seeded into a 6-well plate at a density of 0.25×10^6 cells/well and then treated compounds with indicated concentration and incubated for the indicated times. After staining with trypan blue, cell counts were performed using a Countess® II FL Automated Cell Counter (ThermoFisher Scientific).

SEMK2 cells = assay: Cell proliferation assay in SEMK2 cells (trypan blue cell counts); type: cell-based; details: FIG. 11
Protocol: Example 17: Cell Proliferation Assays in SEMK2 (B Acute Lymphoblastic Leukemia) Cells with Inventive Bifunctional Compounds
as §1, with “SEMK2” for “EOL1”

DOT1L [3] = biological target: T1, DOT1L; assay: Western blot of DOT1L degradation in MV411 cells; type: cell-based; set-up: endogenous in cells; details: FIG. 5A, 10A
Target sequence in this assay (Q8TEK3 whole entry): as above

THP1 cells = assay: Cell proliferation assay in THP1 cells (trypan blue cell counts); type: cell-based; details: FIG. 12
Protocol: Example 18: Cell Proliferation Assays in THP1 (Acute Monocytic Leukemia) Cells with Inventive Bifunctional Compounds
as §1, with “THP1” for “EOL1”

MV411 cells = assay: Cell proliferation assay in MV411 cells (trypan blue cell counts); type: cell-based, human; details: FIG. 5B, 10B
Protocol: Example 16: Cell Proliferation Assays in MV411 (Human Myelomonocytic Leukemia) Cells with Inventive Bifunctional Compounds
as §1, with “MV411” for “EOL1”

Sequence of DOT1L:CRBN (Q8TEK3 whole entry, species assumed): as the sequence (Q8TEK3 whole entry) above
Sequence of DOT1L:CRBN (Q96SW2 whole entry, species assumed): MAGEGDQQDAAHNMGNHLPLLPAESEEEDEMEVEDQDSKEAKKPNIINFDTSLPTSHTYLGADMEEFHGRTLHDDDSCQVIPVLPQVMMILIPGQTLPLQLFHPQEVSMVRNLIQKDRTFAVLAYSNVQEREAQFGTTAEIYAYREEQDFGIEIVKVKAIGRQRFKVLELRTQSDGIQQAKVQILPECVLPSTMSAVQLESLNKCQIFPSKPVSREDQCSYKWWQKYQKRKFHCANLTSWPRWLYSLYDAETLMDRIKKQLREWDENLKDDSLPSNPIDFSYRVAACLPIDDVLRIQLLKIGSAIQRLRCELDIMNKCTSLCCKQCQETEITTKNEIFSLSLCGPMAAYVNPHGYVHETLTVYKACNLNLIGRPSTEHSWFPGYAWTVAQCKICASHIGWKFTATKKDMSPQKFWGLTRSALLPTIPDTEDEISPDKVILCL
Sequence of DOT1L:CRBN (Q16531 whole entry partner, species assumed): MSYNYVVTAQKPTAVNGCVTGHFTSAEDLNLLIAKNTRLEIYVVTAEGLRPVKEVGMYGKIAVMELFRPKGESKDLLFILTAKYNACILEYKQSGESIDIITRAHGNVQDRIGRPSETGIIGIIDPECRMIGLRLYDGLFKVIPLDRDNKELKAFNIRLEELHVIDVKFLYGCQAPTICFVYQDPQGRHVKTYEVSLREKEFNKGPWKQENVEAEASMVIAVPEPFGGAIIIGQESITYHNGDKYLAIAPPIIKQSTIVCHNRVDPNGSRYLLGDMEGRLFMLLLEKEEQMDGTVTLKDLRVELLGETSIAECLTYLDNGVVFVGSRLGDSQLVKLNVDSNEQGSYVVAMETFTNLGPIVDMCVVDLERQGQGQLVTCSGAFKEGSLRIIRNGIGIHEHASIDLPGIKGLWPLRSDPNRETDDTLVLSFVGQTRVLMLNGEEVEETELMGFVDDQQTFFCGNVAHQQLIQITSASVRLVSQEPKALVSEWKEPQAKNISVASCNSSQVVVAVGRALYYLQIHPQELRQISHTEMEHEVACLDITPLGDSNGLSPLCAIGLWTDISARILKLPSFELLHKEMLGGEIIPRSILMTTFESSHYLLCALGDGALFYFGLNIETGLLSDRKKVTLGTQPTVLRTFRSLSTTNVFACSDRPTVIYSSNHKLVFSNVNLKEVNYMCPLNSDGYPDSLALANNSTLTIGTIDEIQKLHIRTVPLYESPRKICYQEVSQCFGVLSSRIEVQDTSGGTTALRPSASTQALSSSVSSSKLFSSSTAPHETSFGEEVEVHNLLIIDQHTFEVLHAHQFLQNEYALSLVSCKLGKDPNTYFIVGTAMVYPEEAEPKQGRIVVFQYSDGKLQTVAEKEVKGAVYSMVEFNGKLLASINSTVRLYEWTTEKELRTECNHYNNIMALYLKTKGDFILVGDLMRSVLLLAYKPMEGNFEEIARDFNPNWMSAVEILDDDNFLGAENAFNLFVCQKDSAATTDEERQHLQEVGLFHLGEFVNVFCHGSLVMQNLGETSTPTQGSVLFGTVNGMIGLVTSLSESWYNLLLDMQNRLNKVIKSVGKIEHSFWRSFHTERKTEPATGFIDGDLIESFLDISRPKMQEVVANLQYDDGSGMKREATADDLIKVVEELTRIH

SMILES	DOT1L degradation in EOL1 cells (DOT1L [1])	formation of ternary complexes between DOT1L and CRBN (DOT1L:CRBN)	DOT1L binding via displacement of FITC-probe in FP assay (DOT1L [2])	EOL1 cell viability (EOL1 cells)	SEMK2 cell viability (SEMK2 cells)	DOT1L degradation in MV411 cells (DOT1L [3])	THP1 cell viability (THP1 cells)	MV411 cell viability (MV411 cells)
CC(C)N(C[C@H]1O[C@@H](n2cnc3c(NCCCCNC(=O)CCCCCCCCCCCCCCCNc4cccc5c4C(=O)N(C4CCC(=O)NC4=O)C5=O)ncnc32)[C@H](O)[C@@H]1O)C1CC(CCc2nc3cc(C(C)(C)C)ccc3[nH]2)C1 (some centres unmarked) [Compound 3]	degraded DOT1L in EOL1 cells and in a dose dependent manner up to 5.0 μM	induced the formation of ternary complexes between the DOT1L and CRBN	bound DOT1L via displacement of fluorescein isothiocyanate (FITC)-probe in FP assay	reduced EOL1 cell viability in a dose dependent manner and at early time points	–	–	–	–
CC(C)N(CCCNC(=O)Nc1ccc(C(C)(C)C)cc1)C[C@H]1O[C@H](n2cnc3c(NCCCCNC(=O)CCCCCCCCCCCCCCCNc4cccc5c4C(=O)N(C4CCC(=O)NC4=O)C5=O)ncnc32)[C@H](O)[C@@H]1O (stereo partly drawn) [Compound 6, N-(4-((9-((2S,3R,4S,5R)-5-(((3-(3-(4-(tert-butyl)phenyl)ureido)propyl)(isopropyl)amino)methyl)-3,4-dihydroxytetrahydrofuran-2-yl)-9H-purin-6-yl)amino)butyl)-16-((2-(2,6-dioxopiperidin-3-yl)-1,3-dioxoisoindolin-4-yl)amino)hexadecanamide]	degraded DOT1L in EOL1 cells and in a dose dependent manner up to 5.0 μM	induced the formation of ternary complexes between the DOT1L and CRBN	bound DOT1L via displacement of fluorescein isothiocyanate (FITC)-probe in FP assay	reduced EOL1 cell viability in a dose dependent manner and at early time points	reduced SEMK2 cell viability in a dose dependent manner and at early time points	degraded DOT1L in MV411 cells and in a dose dependent manner up to 5.0 μM	reduced THP1 cell viability in a dose dependent manner and at early time points	reduced MV411 cell viability in a dose dependent manner and at early time points
CC(C)N(C[C@H]1O[C@@H](n2cnc3c(NCCCCNC(=O)CCCCCCCCCCCCCCCNc4cccc5c4C(=O)N(C4CCC(=O)NC4=O)C5=O)ncnc32)[C@H](O)[C@@H]1O)C1CC(CCc2nc3cc(C(C)(C)C)ccc3[nH]2)C1 (stereo partly drawn) [Compound 2, N-(4-((9-((2R,3R,4S,5R)-5-((3-(2-(5-(tert-butyl)-1H-benzo[d]imidazol-2-yl)ethyl)cyclobutyl)(isopropyl)amino)methyl)-3,4-dihydroxytetrahydrofuran-2-yl)-9H-purin-6-yl)amino)butyl)-16-((2-(2,6-dioxopiperidin-3-yl)-1,3-dioxoisoindolin-4-ylamino)hexadecanamide]	degraded DOT1L in EOL1 cells and in a dose dependent manner up to 2.5 μM	induced the formation of ternary complexes between the DOT1L and CRBN	bound DOT1L via displacement of fluorescein isothiocyanate (FITC)-probe in FP assay	reduced EOL1 cell viability in a dose dependent manner and at early time points	–	degraded DOT1L in MV411 cells and in a dose dependent manner up to 10.0 μM	–	reduced MV411 cell viability in a dose dependent manner and at early time points
CC(C)N(C[C@H]1O[C@@H](n2ccc3c(NCCCCNC(=O)CCCCCCCCCCCCCCCNc4cccc5c4C(=O)N(C4CCC(=O)NC4=O)C5=O)ncnc32)[C@H](O)[C@@H]1O)C1CC(CCc2nc3cc(C(C)(C)C)ccc3[nH]2)C1 (stereo partly drawn) [Compound 5, N-(4-((7-((2R,3R,4S,5R)-5-(((3-(2-(5-(tert-butyl)-1H-benzo[d]imidazol-2-yl)ethyl)cyclobutyl)(isopropyl)amino)methyl)-3,4-dihydroxytetrahydrofuran-2-yl)-7H-pyrrolo[2,3-d]pyrimidin-4-yl)amino)butyl)-16-((2-(2,6-dioxopiperidin-3-yl)-1,3-dioxoisoindolin-4-yl)amino)hexadecanamide]	–	–	–	did not reduce EOL1 cell viability in a dose dependent manner and at early time points	–	–	–	–
Cc1ncsc1-c1ccc(CNC(=O)[C@H]2C[C@H](O)CN2C(=O)[C@H](NC(=O)CCCCCCCNC(=O)CCCC(=O)NCCCCNc2ncnc3c2ncn3[C@@H]2O[C@H](CN(C(C)C)C3CC(CCc4nc5cc(C(C)(C)C)ccc5[nH]4)C3)[C@@H](O)[C@H]2O)C(C)(C)C)cc1 (stereo partly drawn) [Compound 4, N1-(4-((9-((2R,3R,4S,5R)-5-(((3-(2-(5-(tert-butyl)-1H-benzo[d]imidazol-2-yl)ethyl)cyclobutyl)(isopropyl)amino)methyl)-3,4-dihydroxytetrahydrofuran-2-yl)-9H-purin-6-yl)amino)butyl)-N5-(8-(((R)-1-((2R,4S)-4-hydroxy-2-((4-(4-methylthiazol-5-yl)benzyl)carbamoyl)pyrrolidin-1-yl)-3,3-dimethyl-1-oxobutan-2-yl)amino)-8-oxooctyl)glutaramide]	–	–	–	did not reduce EOL1 cell viability in a dose dependent manner	–	–	–	–
